Results from BigSolDB 2.1.

COc1cc(CNC(=O)CCCCCCC(C)C)ccc1O
Conditions | solubility (mole fraction)
in acetone, 299.49 K | 0.193
in acetone, 300.47 K | 0.203
in acetone, 302.34 K | 0.224
in acetone, 303.46 K | 0.236
in acetone, 304.58 K | 0.249
in acetone, 305.69 K | 0.256
in acetone, 306.75 K | 0.269
in acetone, 308.78 K | 0.287
in ethanol, 301.79 K | 0.184
in ethanol, 303.35 K | 0.196
in ethanol, 305.54 K | 0.213
in ethanol, 307.86 K | 0.233
in ethanol, 309.95 K | 0.249
in ethanol, 311.23 K | 0.258
in ethanol, 312.98 K | 0.268
in ethanol, 314.44 K | 0.278
in ethyl acetate, 302.07 K | 0.307
in ethyl acetate, 304.12 K | 0.33
in ethyl acetate, 305.29 K | 0.342
in ethyl acetate, 306.48 K | 0.354
in ethyl acetate, 307.69 K | 0.369
in ethyl acetate, 308.81 K | 0.379
in ethyl acetate, 310.65 K | 0.397
in ethyl acetate, 312.79 K | 0.415
in n-heptane, 298.43 K | 0.000229
in n-heptane, 300.59 K | 0.00026
in n-heptane, 302.85 K | 0.000299
in n-heptane, 304.03 K | 0.000318
in n-heptane, 305.69 K | 0.000349
in n-heptane, 307.08 K | 0.000378
in n-heptane, 308.84 K | 0.000422
in n-heptane, 309.97 K | 0.000451
in n-heptane, 311.04 K | 0.00048
in n-heptane, 313.41 K | 0.000549
in n-hexane, 296.14 K | 0.000136
in n-hexane, 298.73 K | 0.000159
in n-hexane, 300.87 K | 0.000181
in n-hexane, 301.98 K | 0.000196
in n-hexane, 303.09 K | 0.00021
in n-hexane, 305.04 K | 0.000238
in n-hexane, 307.13 K | 0.000269
in n-hexane, 309.25 K | 0.000309
in n-hexane, 310.68 K | 0.00034
in n-hexane, 312.02 K | 0.000374
in n-pentane, 297.26 K | 0.000115
in n-pentane, 298.19 K | 0.000122
in n-pentane, 299.27 K | 0.00013
in n-pentane, 300.43 K | 0.000142
in n-pentane, 301.54 K | 0.000152
in water, 324.67 K | 4.81e-05
in water, 325.03 K | 5.24e-05
in water, 325.66 K | 6.14e-05
in water, 326.29 K | 7.19e-05
in water, 326.81 K | 8.17e-05
in water, 327.37 K | 9.26e-05
